According to ChEMBL document CHEMBL4002623, “Synthesis and in vitro activity of dicationic indolyl diphenyl ethers as novel potent antibiotic agents against drug-resistant bacteria” (Bioorg Med Chem Lett, 2017):
In brackets after ≈: the same amount, converted by molar mass.

Assays:
[1] = tested on: Enterococcus faecium; assay: Antibacterial activity against vancomycin-resistant Enterococcus faecium ATCC 700221 by agar dilution method; assay type: functional
[2] = tested on: Providencia rettgeri; assay: Antibacterial activity against Providencia rettgeri ATCC 31052 by agar dilution method; assay type: functional
[3] = tested on: Klebsiella pneumoniae; assay: Antibacterial activity against extended-spectrum beta-lactamase-positive Klebsiella pneumoniae 09-25 by agar dilution method; assay type: functional
[4] = tested on: Serratia marcescens; assay: Antibacterial activity against Serratia marcescens 41002 by agar dilution method; assay type: functional
[5] = tested on: Enterococcus faecalis; assay: Antibacterial activity against vancomycin-sensitive Enterococcus faecalis 09-8 by agar dilution method; assay type: functional
[6] = tested on: Pseudomonas aeruginosa; assay: Antibacterial activity against Pseudomonas aeruginosa PAO1 by agar dilution method; assay type: functional
[7] = tested on: Escherichia coli; assay: Antibacterial activity against extended-spectrum beta-lactamase-negative Escherichia coli 1515 by agar dilution method; assay type: functional
[8] = tested on: Enterobacter cloacae; assay: Antibacterial activity against Enterobacter cloacae 45301 by agar dilution method; assay type: functional
[9] = tested on: Morganella morganii; assay: Antibacterial activity against Morganella morganii ATCC 25830 by agar dilution method; assay type: functional
[10] = tested on: Enterococcus faecalis; assay: Antibacterial activity against vancomycin-resistant Enterococcus faecalis ATCC 51299 by agar dilution method; assay type: functional
[11] = tested on: Klebsiella pneumoniae; assay: Antibacterial activity against extended-spectrum beta-lactamase-positive Klebsiella pneumoniae ATCC 700603 by agar dilution method; assay type: functional
[12] = tested on: Klebsiella aerogenes; assay: Antibacterial activity against Enterobacter aerogenes 45102 by agar dilution method; assay type: functional
[13] = tested on: Klebsiella pneumoniae; assay: Antibacterial activity against extended-spectrum beta-lactamase-negative Klebsiella pneumoniae 09-8 by agar dilution method; assay type: functional
[14] = tested on: Salmonella typhi; assay: Antibacterial activity against Salmonella typhi H901 by agar dilution method; assay type: functional, Salmonella enterica subsp. enterica serovar Typhi; settings: Salmonella enterica
[15] = tested on: Pseudomonas aeruginosa; assay: Antibacterial activity against Pseudomonas aeruginosa ATCC 27853 by agar dilution method; assay type: functional
[16] = tested on: Staphylococcus epidermidis; assay: Antibacterial activity against methicillin-sensitive Staphylococcus epidermidis 09-9 by agar dilution method; assay type: functional
[17] = tested on: Proteus mirabilis; assay: Antibacterial activity against Proteus mirabilis 09-1 by agar dilution method; assay type: functional
[18] = tested on: Pseudomonas aeruginosa; assay: Antibacterial activity against Pseudomonas aeruginosa 09-14 by agar dilution method; assay type: functional
[19] = tested on: Enterococcus faecalis; assay: Antibacterial activity against vancomycin-resistant Enterococcus faecalis 09-9 by agar dilution method; assay type: functional
[20] = tested on: Enterococcus faecium; assay: Antibacterial activity against vancomycin-resistant Enterococcus faecium 05-8 by agar dilution method; assay type: functional
[21] = tested on: Staphylococcus aureus; assay: Antibacterial activity against methicillin-resistant Staphylococcus aureus 09-13 by agar dilution method; assay type: functional
[22] = Cytotoxicity against HEK293T cells after 48 hrs by MTS assay; assay type: cell-based, HEK-293T; settings: human
[23] = tested on: Escherichia coli; assay: Antibacterial activity against extended-spectrum beta-lactamase-negative Escherichia coli ATCC 25922 by agar dilution method; assay type: functional
[24] = tested on: Staphylococcus aureus; assay: Antibacterial activity against methicillin-resistant Staphylococcus aureus ATCC 33591 by agar dilution method; assay type: functional
[25] = tested on: Klebsiella pneumoniae; assay: Antibacterial activity against Klebsiella pneumoniae ATCC BAA-2146 expressing NDM-1 by agar dilution method; assay type: functional
[26] = tested on: Klebsiella pneumoniae; assay: Antibacterial activity against extended-spectrum beta-lactamase-negative Klebsiella pneumoniae 7 by agar dilution method; assay type: functional
[27] = tested on: Enterococcus faecium; assay: Antibacterial activity against vancomycin-sensitive Enterococcus faecium 09-10 by agar dilution method; assay type: functional
[28] = tested on: Staphylococcus epidermidis; assay: Antibacterial activity against methicillin-resistant Staphylococcus epidermidis 09-3 by agar dilution method; assay type: functional
[29] = tested on: Staphylococcus aureus; assay: Antibacterial activity against methicillin-sensitive Staphylococcus aureus ATCC 29213 by agar dilution method; assay type: functional
[30] = tested on: Citrobacter freundii; assay: Antibacterial activity against Citrobacter freundii ATCC 43864 by agar dilution method; assay type: functional
[31] = tested on: Acinetobacter calcoaceticus; assay: Antibacterial activity against Acinetobacter calcoaceticus ATCC 19606 by agar dilution method; assay type: functional
[32] = tested on: Staphylococcus aureus; assay: Antibacterial activity against methicillin-sensitive Staphylococcus aureus 15 by agar dilution method; assay type: functional
[33] = tested on: Enterococcus faecalis; assay: Antibacterial activity against vancomycin-sensitive Enterococcus faecalis ATCC 29212 by agar dilution method; assay type: functional
[34] = tested on: Staphylococcus epidermidis; assay: Antibacterial activity against methicillin-sensitive Staphylococcus epidermidis ATCC 12228 by agar dilution method; assay type: functional
[35] = tested on: Proteus vulgaris; assay: Antibacterial activity against Proteus vulgaris ATCC 29905 by agar dilution method; assay type: functional
[36] = tested on: Escherichia coli; assay: Antibacterial activity against extended-spectrum beta-lactamase-positive Escherichia coli 09-1 by agar dilution method; assay type: functional
[37] = tested on: Staphylococcus aureus; assay: Antibacterial activity against methicillin-sensitive Staphylococcus aureus 09-6 by agar dilution method; assay type: functional
[38] = tested on: Escherichia coli; assay: Antibacterial activity against extended-spectrum beta-lactamase-negative Escherichia coli 09-20 by agar dilution method; assay type: functional

N=C(NC1CC1)c1ccc2cc(-c3ccc(Oc4ccc(-c5cc6ccc(C(=N)NC7CC7)cc6[nH]5)cc4)cc3)[nH]c2c1
MIC [1]: 4 µg/mL (≈ 7.08 µM)
MIC [2]: > 128 µg/mL
MIC [3]: > 128 µg/mL
MIC [4]: > 128 µg/mL
MIC [5]: 4 µg/mL (≈ 7.08 µM)
MIC [6]: > 128 µg/mL
MIC [7]: 128 µg/mL (≈ 227 µM)
MIC [8]: > 128 µg/mL
MIC [9]: 128 µg/mL (≈ 227 µM)
MIC [10]: 4 µg/mL (≈ 7.08 µM)
MIC [11]: > 128 µg/mL
MIC [12]: 128 µg/mL (≈ 227 µM)
MIC [13]: > 128 µg/mL
MIC [14]: > 128 µg/mL
MIC [15]: > 128 µg/mL
MIC [16]: 4 µg/mL (≈ 7.08 µM)
MIC [17]: > 128 µg/mL
MIC [18]: > 128 µg/mL
MIC [19]: 8 µg/mL (≈ 14.2 µM)
MIC [20]: 4 µg/mL (≈ 7.08 µM)
MIC [21]: 4 µg/mL (≈ 7.08 µM)
CC50 at 48 h [22]: 36.9 µg/mL (≈ 65.3 µM)
MIC [23]: 128 µg/mL (≈ 227 µM)
MIC [24]: 4 µg/mL (≈ 7.08 µM)
MIC [25]: > 128 µg/mL
MIC [26]: > 128 µg/mL
MIC [27]: 8 µg/mL (≈ 14.2 µM)
MIC [28]: 2 µg/mL (≈ 3.54 µM)
MIC [29]: 4 µg/mL (≈ 7.08 µM)
MIC [30]: > 128 µg/mL
MIC [31]: > 128 µg/mL
MIC [32]: 4 µg/mL (≈ 7.08 µM)
MIC [33]: 4 µg/mL (≈ 7.08 µM)
MIC [34]: 1 µg/mL (≈ 1.77 µM)
MIC [35]: > 128 µg/mL
MIC [36]: 128 µg/mL (≈ 227 µM)
MIC [37]: 4 µg/mL (≈ 7.08 µM)
MIC [38]: 128 µg/mL (≈ 227 µM)

CCNC(=N)c1ccc2cc(-c3ccc(Oc4ccc(-c5cc6ccc(C(=N)NCC)cc6[nH]5)cc4)cc3)[nH]c2c1
MIC [1]: 2 µg/mL (≈ 3.7 µM)
MIC [2]: 128 µg/mL (≈ 237 µM)
MIC [3]: 64 µg/mL (≈ 118 µM)
MIC [4]: 128 µg/mL (≈ 237 µM)
MIC [5]: 2 µg/mL (≈ 3.7 µM)
MIC [6]: > 128 µg/mL
MIC [7]: 64 µg/mL (≈ 118 µM)
MIC [8]: 64 µg/mL (≈ 118 µM)
MIC [9]: 128 µg/mL (≈ 237 µM)
MIC [10]: 2 µg/mL (≈ 3.7 µM)
MIC [11]: 64 µg/mL (≈ 118 µM)
MIC [12]: 64 µg/mL (≈ 118 µM)
MIC [13]: 64 µg/mL (≈ 118 µM)
MIC [14]: 64 µg/mL (≈ 118 µM)
MIC [15]: 128 µg/mL (≈ 237 µM)
MIC [16]: 1 µg/mL (≈ 1.85 µM)
MIC [17]: 128 µg/mL (≈ 237 µM)
MIC [18]: 128 µg/mL (≈ 237 µM)
MIC [19]: 1 to 8 µg/mL (≈ 1.85 to 14.8 µM)
MIC [20]: 4 µg/mL (≈ 7.4 µM)
MIC [21]: 1 µg/mL (≈ 1.85 µM)
CC50 at 48 h [22]: 36.3 µg/mL (≈ 67.1 µM)
MIC [23]: 64 µg/mL (≈ 118 µM)
MIC [24]: 1 µg/mL (≈ 1.85 µM)
MIC [25]: 128 µg/mL (≈ 237 µM)
MIC [26]: 128 µg/mL (≈ 237 µM)
MIC [27]: 16 µg/mL (≈ 29.6 µM)
MIC [28]: 1 µg/mL (≈ 1.85 µM)
MIC [29]: 2 µg/mL (≈ 3.7 µM)
MIC [30]: 128 µg/mL (≈ 237 µM)
MIC [31]: > 128 µg/mL
MIC [32]: 1 µg/mL (≈ 1.85 µM)
MIC [33]: 2 µg/mL (≈ 3.7 µM)
MIC [34]: 1 µg/mL (≈ 1.85 µM)
MIC [35]: 128 µg/mL (≈ 237 µM)
MIC [36]: 64 µg/mL (≈ 118 µM)
MIC [37]: 2 µg/mL (≈ 3.7 µM)
MIC [38]: 64 µg/mL (≈ 118 µM)

CC1CC(C)CN(C(=N)c2ccc3cc(-c4ccc(Oc5ccc(-c6cc7ccc(C(=N)N8CC(C)CC(C)C8)cc7[nH]6)cc5)cc4)[nH]c3c2)C1 (centres undefined)
MIC [1]: 128 µg/mL (≈ 189 µM)
MIC [2]: > 128 µg/mL
MIC [3]: > 128 µg/mL
MIC [4]: > 128 µg/mL
MIC [5]: 64 µg/mL (≈ 94.5 µM)
MIC [6]: > 128 µg/mL
MIC [7]: > 128 µg/mL
MIC [8]: > 128 µg/mL
MIC [9]: > 128 µg/mL
MIC [10]: 64 µg/mL (≈ 94.5 µM)
MIC [11]: > 128 µg/mL
MIC [12]: > 128 µg/mL
MIC [13]: > 128 µg/mL
MIC [14]: > 128 µg/mL
MIC [15]: > 128 µg/mL
MIC [16]: 64 µg/mL (≈ 94.5 µM)
MIC [17]: > 128 µg/mL
MIC [18]: > 128 µg/mL
MIC [19]: 64 µg/mL (≈ 94.5 µM)
MIC [20]: > 128 µg/mL
MIC [21]: 16 µg/mL (≈ 23.6 µM)
CC50 at 48 h [22]: 2.6 µg/mL (≈ 3.84 µM)
MIC [23]: > 128 µg/mL
MIC [24]: 64 µg/mL (≈ 94.5 µM)
MIC [25]: > 128 µg/mL
MIC [26]: > 128 µg/mL
MIC [27]: 128 µg/mL (≈ 189 µM)
MIC [28]: 16 µg/mL (≈ 23.6 µM)
MIC [29]: 64 µg/mL (≈ 94.5 µM)
MIC [30]: > 128 µg/mL
MIC [31]: > 128 µg/mL
MIC [32]: 64 µg/mL (≈ 94.5 µM)
MIC [33]: 128 µg/mL (≈ 189 µM)
MIC [34]: 16 µg/mL (≈ 23.6 µM)
MIC [35]: > 128 µg/mL
MIC [36]: > 128 µg/mL
MIC [37]: 64 µg/mL (≈ 94.5 µM)
MIC [38]: > 128 µg/mL
